Reference: ChEMBL document CHEMBL3244240, “Antitubercular 2,8-bis(alkylaminomethyl)phenazines” (1978)
Values after ≈ are worked out from the molar mass of the structure shown. Active and inactive are the calls of the source. The rule behind the calls is not given here.

Assays:
[1] = test system: Mycolicibacterium smegmatis; assay: Antitubercular against Mycobacterium smegmatis ATCC 607 by agar dilution method; type: functional
[2] = test system: Mycobacterium tuberculosis; assay: Antitubercular against Mycobacterium tuberculosis H37Rv infected in mouse assessed as host survival at 2.5 mg/kg/day administered with food for 19 days measured on day 30; type: functional, organism-based
[3] = test system: Mycobacterium tuberculosis; assay: Antitubercular against Mycobacterium tuberculosis H37Rv infected in mouse assessed as host survival at 9 mg/kg/day administered with food for 19 days measured on day 30; type: functional, organism-based
[4] = test system: Mycobacterium tuberculosis; assay: Antitubercular against Mycobacterium tuberculosis H37Rv infected in mouse assessed as host survival at 75 mg/kg/day administered with food for 19 days measured on day 30; type: functional, organism-based
[5] = test system: Mycobacterium tuberculosis; assay: Antitubercular against Mycobacterium tuberculosis H37Rv infected in mouse assessed as host survival at 19 mg/kg/day administered with food for 19 days measured on day 30; type: functional, organism-based
[6] = test system: Mycobacterium tuberculosis; assay: Antitubercular against Mycobacterium tuberculosis H37Rv infected in mouse assessed as host survival at 5 mg/kg/day administered with food for 19 days measured on day 30; type: functional, organism-based

| Structure (SMILES) | MIC [1] | also measured |
| --- | --- | --- |
| CC[C@@H](CO)NCCN[C@@H](CC)CO [ETHAMBUTOL] | 0.5 µg/mL (≈ 2.45 µM) | – |
| NNC(=O)c1ccncc1 [ISONIAZID] | 0.05 µg/mL (≈ 0.365 µM) | Activity [2]: inactive; Activity [3]: Active |
| CCCCCCN(CCCCCC)Cc1ccc2nc3ccc(CN(CCCCCC)CCCCCC)cc3nc2c1 | 62 µg/mL (≈ 108 µM) | – |
| Cl.c1ccc(N2CCN(Cc3ccc4nc5ccc(CN6CCN(c7ccccn7)CC6)cc5nc4c3)CC2)nc1 | 125 µg/mL | – |
| CCCCCCCCN(CCCCCCCC)Cc1ccc2nc3ccc(CN(CCCCCCCC)CCCCCCCC)cc3nc2c1 | 62 µg/mL (≈ 90.2 µM) | – |
| CCCCN(CCCC)Cc1ccc2nc3ccc(CN(CCCC)CCCC)cc3nc2c1.Cl | 2.5 µg/mL | Activity [4]: Active; Activity [5]: inactive; Activity [6]: inactive |
| Cl.c1ccc(CN2CCN(Cc3ccc4nc5ccc(CN6CCN(Cc7ccccc7)CC6)cc5nc4c3)CC2)cc1 | 10 µg/mL | – |
| CCN(CC)Cc1ccc2nc3ccc(CN(CC)CC)cc3nc2c1.Cl | 5 µg/mL | – |
| CCCCCN(CCCCC)Cc1ccc2nc3ccc(CN(CCCCC)CCCCC)cc3nc2c1 | 62 µg/mL (≈ 119 µM) | – |
| CC1CN(Cc2ccc3nc4ccc(CN5CC(C)NC(C)C5)cc4nc3c2)CC(C)N1.Cl (stereo not drawn) | 62 µg/mL | – |
| c1cc2nc3ccc(CN4CCCCC4)cc3nc2cc1CN1CCCCC1 | 62 µg/mL (≈ 166 µM) | – |
| CCCCCCCN(CCCCCCC)Cc1ccc2nc3ccc(CN(CCCCCCC)CCCCCCC)cc3nc2c1 | 62 µg/mL (≈ 98.2 µM) | – |
| CN1CCN(Cc2ccc3nc4ccc(CN5CCN(C)CC5)cc4nc3c2)CC1 | 62 µg/mL (≈ 153 µM) | – |
